Source: patent publication US10597382B2, “Tetrazole containing apoptosis signal-regulating kinase 1 inhibitors and methods of use thereof” (ENANTA PHARMACEUTICALS, INC., priority 2017, dated 2020)

Target: ASK1 kinase (Homo sapiens (Human), UniProt Q99683)
Assay: HTRF KinEASE assay of ASK1 kinase activity inhibition
Format: biochemical
Details: HTRF KinEASE-STK TR-FRET; 5 nM ASK1, 1 uM STK3 peptide substrate, 100 uM ATP, 3 hours
Experimental: • The ability (IC50) of compounds to inhibit ASK1 kinase activity was determined by HTRF® KinEASE™ Assay System
ASK1 kinase was from Thermofisher (Catalogue # PV4011), ATP was from Sigma (Catalogue # A7699), HTRF® KinEASE™ Assay System was obtained from Cisbio (Bedford, Mass.). ½ Area plate was from Perkin Elmer (Catalogue #6005560). HTRF® KinEASE™-STK is a generic method for measuring serine/threonine kinase activities using time-resolved fluorescence resonance energy transfer (TR-FRET) immunoassay. The IC50 value for each compound was determined in the presence of compound (various concentration from 0 to 10 uM) and a fixed amount of ATP, peptide substrates. Test compound, 1 uM STK3 peptide substrate, 5 nM of ASK1 kinase are incubated with kinase reaction buffer, containing 50 mM HEPES pH 7.5, 0.01% BRIJ-35, 10 mM MgCl2, and 1 mM EGTA for 30 minutes, then 100 uM ATP is added to start kinase reaction and incubated for 3 hours. The STK3-antibody labeled with Eu^3+-Cryptate and 125 nM streptavidin-XL665 are mixed in a single addition with stop reagents provided by the Cisbio kit used to stop the kinase reaction. Fluorescence is detected using Envision Multilabeled 2014 reader from PerkinElmer. The Fluorescence is measured at 615 nm (Cryptate) and 665 nm (XL665) and a ratio of 665 nm/615 nm is calculated for each well. The resulting TR-FRET is proportional to the phosphorylation level. Staurosporine was used as the positive control. IC50 was determined by Xlfit 5.3.
By using above method, the inhibition of ASK1 was tested for the compound of formula (I). IC50 ranges are as follows: A<1 nM; 1 nM<[…]B<10 nM; 10 nM<C<100 nM; 100 nM<D<1 μM; E>1 μM.

Chain of ASK1 kinase (Q99683 whole entry): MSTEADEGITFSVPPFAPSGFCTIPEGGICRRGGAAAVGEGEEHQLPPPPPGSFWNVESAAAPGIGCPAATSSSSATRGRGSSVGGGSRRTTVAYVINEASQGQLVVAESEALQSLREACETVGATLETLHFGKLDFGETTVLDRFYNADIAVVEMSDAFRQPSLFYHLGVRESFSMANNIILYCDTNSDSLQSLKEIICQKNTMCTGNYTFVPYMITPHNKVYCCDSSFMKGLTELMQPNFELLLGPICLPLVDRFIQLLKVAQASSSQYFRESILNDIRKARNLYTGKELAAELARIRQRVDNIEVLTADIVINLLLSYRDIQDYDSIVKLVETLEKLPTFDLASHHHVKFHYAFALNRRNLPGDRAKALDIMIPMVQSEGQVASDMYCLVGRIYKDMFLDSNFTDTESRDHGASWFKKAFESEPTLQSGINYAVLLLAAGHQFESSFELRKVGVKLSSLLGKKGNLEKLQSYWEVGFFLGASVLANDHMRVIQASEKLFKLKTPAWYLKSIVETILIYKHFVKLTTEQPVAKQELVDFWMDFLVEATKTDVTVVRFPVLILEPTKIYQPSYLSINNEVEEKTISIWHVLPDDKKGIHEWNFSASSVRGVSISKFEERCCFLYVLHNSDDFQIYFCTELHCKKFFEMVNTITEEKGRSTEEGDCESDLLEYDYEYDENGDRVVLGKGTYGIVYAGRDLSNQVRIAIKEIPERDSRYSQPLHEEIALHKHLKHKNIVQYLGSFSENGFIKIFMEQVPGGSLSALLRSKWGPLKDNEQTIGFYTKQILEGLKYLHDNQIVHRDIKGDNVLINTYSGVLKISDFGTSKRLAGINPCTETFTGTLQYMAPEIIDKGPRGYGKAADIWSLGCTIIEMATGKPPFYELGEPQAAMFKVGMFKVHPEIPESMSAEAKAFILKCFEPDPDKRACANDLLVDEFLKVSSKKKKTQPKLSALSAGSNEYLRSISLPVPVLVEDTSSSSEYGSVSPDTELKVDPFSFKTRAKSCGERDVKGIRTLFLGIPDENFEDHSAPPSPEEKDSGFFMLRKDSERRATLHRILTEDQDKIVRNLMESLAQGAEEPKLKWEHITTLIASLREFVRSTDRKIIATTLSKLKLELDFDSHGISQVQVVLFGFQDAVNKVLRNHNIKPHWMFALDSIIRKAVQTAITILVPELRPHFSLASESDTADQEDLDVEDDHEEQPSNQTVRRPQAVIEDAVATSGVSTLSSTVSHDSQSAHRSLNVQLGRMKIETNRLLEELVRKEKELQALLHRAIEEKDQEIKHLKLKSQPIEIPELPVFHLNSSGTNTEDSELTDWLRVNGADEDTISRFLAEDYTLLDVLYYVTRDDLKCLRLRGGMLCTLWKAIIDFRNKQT

| Structure (SMILES) | IC50 [nM] |
| --- | --- |
| CC(C)c1nnnn1-c1cccc(N2Cc3ccc(-n4cnc(C5CC5)c4)cc3C2=O)n1 [Example 1, 6-(4-cyclopropyl-1H-imidazol-1-yl)-2-(6-(5-isopropyl-1H-tetrazol-1-yl)pyridine-2-yl)isoindolin-1-one] | 1 to 10 |
| CC(C)n1nnnc1-c1cccc(N2Cc3ccc(-n4cnc(C5CC5)c4)cc3C2=O)n1 [Example 2, 6-(4-cyclopropyl-1H-imidazol-1-yl)-2-(6-(1-isopropyl-1H-tetrazol-5-yl)pyridine-2-yl)isoindolin-1-one] | 10 to 100 |
| CC(=O)OC[C@@H](C)n1nnnc1-c1cccc(N2Cc3ccc(-n4cnc(C5CC5)c4)cc3C2=O)n1 [Example 3, I-2-(5-(6-(6-(4-cyclopropyl-1H-imidazol-1-yl)-1-oxoisoindolin-2-yl)pyridine-2-yl)-1H-tetrazol-1-yl)propyl acetate] | 100 to 1000 |
| C[C@H](CO)n1nnnc1-c1cccc(N2Cc3ccc(-n4cnc(C5CC5)c4)cc3C2=O)n1 [Example 4, I-6-(4-cyclopropyl-1H-imidazol-1-yl)-2-(6-(1-(1-hydroxypropan-2-yl)-1H-tetrazol-5-yl)pyridine-2-yl)isoindolin-1-one] | 10 to 100 |
| CC(=O)OC[C@@H](C)n1nnnc1-c1cccc(N2Cc3ccc(OC(C)C)cc3C2=O)n1 [Example 5, I-2-(5-(6-(6-isopropoxy-1-oxoisoindolin-2-yl)pyridine-2-yl)-1H-tetrazol-1-yl)propyl acetate] | > 1000 |
| CC(C)Oc1ccc2c(c1)C(=O)N(c1cccc(-c3nnnn3[C@H](C)CO)n1)C2 [Example 6, I-2-(6-(1-(1-hydroxypropan-2-yl)-1H-tetrazol-5-yl)pyridine-2-yl)-6-isopropoxyisoindolin-1-one] | 1 to 10 |
| CC(C)n1nnnc1-c1cccc(N2Cc3ccccc3C2=O)n1 [Example 7] | 10 to 100 |
| CC(C)c1nnnn1-c1cccc(N2Cc3ccc(N4CCOCC4)cc3C2=O)n1 [Example 8] | 100 to 1000 |
| CC(C)c1nnnn1-c1cccc(N2Cc3ccc(-c4cccnc4)cc3C2=O)n1 [Example 9] | 10 to 100 |
| CCN1CCN(c2ccc3c(c2)C(=O)N(c2cccc(-n4nnnc4C(C)C)n2)C3)CC1=O [Example 10] | 10 to 100 |
| Cc1ncccc1-c1ccc2c(c1)C(=O)N(c1cccc(-n3nnnc3C(C)C)n1)C2 [Example 11] | 100 to 1000 |
| Cc1ccncc1-c1ccc2c(c1)C(=O)N(c1cccc(-n3nnnc3C(C)C)n1)C2 [Example 12] | 100 to 1000 |
| CC(C)n1nnnc1-c1cccc(N2Cc3ccc(-c4cccnc4)cc3C2=O)n1 [Example 13] | 1 to 10 |
| Cc1cc2c(cc1OC(C)C)C(=O)N(c1cccc(-c3nnnn3[C@H](C)CO)n1)C2 [Example 14] | 1 to 10 |
| CC(C)n1nnnc1-c1cccc(N2Cc3ccc(-c4cncc(C5CC5)c4)cc3C2=O)n1 [Example 15] | 10 to 100 |
| CC(C)n1nnnc1-c1cccc(N2Cc3ccc(-c4ccc(C5CC5)nc4)cc3C2=O)n1 [Example 16] | 10 to 100 |
